Numbering of substitutions follows the chain as printed.
Legend:
[1] = target: T1, Androgen receptor L702H (Homo sapiens, UniProt P10275, L702H); assay: Degradation of overexpressed Androgen Receptor in A549 cells (HiBiT), L702H; assay type: cell-based; details: A549 cells overexpressing AR L702H, cycloheximide, 24 hours
T1 construct: expressed in transfected cells; host or cells: A549, transduced, puromycin selected
T1 sequence (P10275 1-920 L702H): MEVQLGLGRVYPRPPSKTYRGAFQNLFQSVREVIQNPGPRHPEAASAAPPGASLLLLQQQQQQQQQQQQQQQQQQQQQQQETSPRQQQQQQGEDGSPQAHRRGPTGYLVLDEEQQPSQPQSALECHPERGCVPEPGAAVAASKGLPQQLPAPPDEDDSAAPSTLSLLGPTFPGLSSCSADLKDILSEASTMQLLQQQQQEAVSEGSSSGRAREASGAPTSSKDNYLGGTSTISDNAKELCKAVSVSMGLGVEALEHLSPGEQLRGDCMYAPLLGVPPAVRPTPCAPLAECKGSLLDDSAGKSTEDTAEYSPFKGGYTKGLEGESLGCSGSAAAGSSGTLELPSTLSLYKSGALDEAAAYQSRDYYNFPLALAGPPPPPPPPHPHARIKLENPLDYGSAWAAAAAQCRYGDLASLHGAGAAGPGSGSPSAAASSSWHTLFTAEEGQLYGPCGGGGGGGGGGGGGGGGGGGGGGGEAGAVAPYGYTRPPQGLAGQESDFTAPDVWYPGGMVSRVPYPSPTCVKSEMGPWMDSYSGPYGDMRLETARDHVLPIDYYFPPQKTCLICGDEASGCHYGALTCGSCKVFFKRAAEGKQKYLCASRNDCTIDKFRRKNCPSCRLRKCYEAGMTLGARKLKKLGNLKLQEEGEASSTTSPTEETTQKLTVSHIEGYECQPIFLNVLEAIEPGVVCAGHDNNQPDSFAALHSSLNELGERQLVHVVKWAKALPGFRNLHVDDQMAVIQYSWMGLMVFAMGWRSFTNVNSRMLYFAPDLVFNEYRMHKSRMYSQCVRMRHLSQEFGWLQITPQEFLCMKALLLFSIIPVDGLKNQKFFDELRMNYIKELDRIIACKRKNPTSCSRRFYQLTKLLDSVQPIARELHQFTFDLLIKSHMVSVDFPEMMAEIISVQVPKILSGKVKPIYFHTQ
Method: (§1) A549 cells were transduced to express wild type androgen receptor and Androgen receptor containing the following mutations (L702H, H875Y W742C W742L F877L, T878A and T878A/H875Y) with HiBiT tags. Transduced cells following puromycin selection were maintained in a humidified incubator (at 37° C. and 5% CO2 in the DMEM medium supplemented with 1% (v/v) Pen/Strep, 1% (v/v) Glutamax and 10% (v/v) FBS. A549 cells expressing each AR construct were detached from plate and counted. Cell suspensions at density 0.2 million per mL were prepared. Cell suspension was supplemented with 100 μg/mL of cycloheximide to block protein synthesis. Cells were preincubated with cycloheximide for 1 hr before seeding. Cells were seeded onto 384-well plate at density of 5,000 in 25 μL per well. A two fold serial dilution of test compounds, starting from 1 μM (row A) in 2-fold serial dilution series across the column using Tecan D300e dispenser. […]
(§2) Nano-Glo HiBiT Lytic reagent was prepared by adding LgBiT protein and Nano-Glo® substrate to lytic buffer pre-equilibrated at room temperature following manufacturer protocol (https://www.promega.co.uk/resources/protocols/technical-manuals/101/nanoglo-luciferase-assay-system-protocol). […] The plates were then centrifuged (100×G, 1 min) and incubated on shaker for 10 mins before taking readings on Pherastar Luminescence microplate reader. […]

[2] = target: T2, Androgen receptor H875Y (Homo sapiens, UniProt P10275, H875Y); assay: Degradation of overexpressed Androgen Receptor in A549 cells (HiBiT), H875Y; assay type: cell-based; details: A549 cells overexpressing AR H875Y, cycloheximide, 24 hours
T2 construct: expressed in transfected cells; host or cells: A549, transduced, puromycin selected
T2 sequence (P10275 1-920 H875Y): T1 sequence (P10275 1-920 L702H) with H702L, H875Y
Method: as §1, §2

[3] = in vivo; details: male, Wistar Han, rat, po
Method: Systemic exposure of various forms of N-((1r,3r)-3-(4-cyano-3-methoxyphenoxy)-2,2,4,4-tetramethylcyclobutyl)-4-(4-((4-(4-(2,4-dioxotetrahydropyrimidin-1(2H)-yl)-1H-pyrazolo[4,3-c]pyridin-1-yl)piperidin-1-yl)methyl)piperidin-1-yl)-3-fluorobenzamide were assessed following oral administration of 30 mg/kg of a suspension formulation (1% methylcellulose (aq)) or following oral administration of 35 mg/kg of a suspension formulation (100% PEG400) in the male Wistar Han rat. […] The sampling period was 72 hours, and the data is reported in the attached table as mean±SD (n=3).

Question: Which results are given for `COc1cc(O[C@H]2C(C)(C)[C@H](NC(=O)c3ccc(N4CCC(CN5CCC(n6ncc7c(N8CCC(=O)NC8=O)nccc76)CC5)CC4)c(F)c3)C2(C)C)ccc1C#N` [Example 20, N-((1r,3r)-3-(4-Cyano-3-methoxyphenoxy)-2,2,4,4-tetramethylcyclobutyl)-4-(4-((4-(4-(2,4-dioxotetrahydropyrimidin-1(2H)-yl)-1H-pyrazolo[4,3-c]pyridin-1-yl)piperidin-1-yl)methyl)piperidin-1-yl)-3-fluorobenzamide]?
Answer: Summary pXC50 [1]: 9.00; Summary pXC50 [2]: 8.83; AUC0-t ([3]; 30 mg/kg): 7220 ± 1220 ng·h/mL; Cmax ([3]; 30 mg/kg): 318 ± 50 ng/mL; Tmax ([3]; 30 mg/kg): 8 h; AUC0-t ([3]; 35 mg/kg): 26200 ± 1750 ng·h/mL; Cmax ([3]; 35 mg/kg): 849 ± 98 ng/mL; Tmax ([3]; 35 mg/kg): 8.7 ± 3 h

Reference: patent US12577231B2, “Androgen receptor PROTACS” (GlaxoSmithKline Intellectual Property Development Limited, priority 2023, dated 2026)
